Patent US8758810B2, “Liposome compositions” (priority 2005, dated 2014)

System: AsPC-1 cells
Experiment: Cytotoxicity test for oxaliplatin (WST-1 kit)
Type: cell-based
Conditions: l-OHP solutions 48 hours
Method: An oxaliplatin (l-OHP) solution was prepared by dissolving oxaliplatin in a 9% sucrose solution (sucrose/distilled water) at a concentration of 8 mg/ml. The cell viability was determined using a commercially available cytotoxicity assay kit (WST-1 kit, Wako Pure Chemical Industries, Ltd., Japan).
AsPC-1 cells (provided by Dr. Hironobu Yanagie of Research Center for Advanced Science and Technology, the University of Tokyo, Japan) cultured in RPMI 1640 medium supplemented with 10% FCS (fetal calf serum; SIGMA, USA) were treated with concentrations of l-OHP solutions [200×(1/2)^(0-10) nM] at 37° C. in 5% CO2 for 48 hours. Then, the medium was removed and a substrate (WST-1, Cell Counting Kit, Dojindo Laboratories, Japan) was added to the cells which were incubated at 37° C. in 5% CO2 for 2 hours to develop the colored product. The developed color was measured at an absorbance of 450 nm (reference wavelength: 620 nm) on an Immuno Mini NJ-2300 (Cosmo Bio Co., Ltd., Japan).

Structure (SMILES): O=C1[O][Pt]2([NH]C3CCCCC3[NH]2)[O]C1=O [l-OHP, cis-[(1R, 2R)-1,2-cyclohexanediamine-N,N′][oxalato(2)-O,O′]platinum]
- cytotoxicity LD50: > 8 µg/mL
